Assay type in all cases: cell-based
The subject of assay [1] is Neisseria gonorrhoeae L997 ISM68/126. Briefly: MIC broth dilution test, Neisseria gonorrhoeae. Conditions: GC base broth + 1% Isovitalex, 48 h, CO2-enriched atmosphere. The method, then: (§1) Culture media and growth conditions for MIC (minimal inhibitory concentration) determinations were as follows: Isosensitest broth (Oxoid), 24 h, for staphylococci, Strep. faecalis and Gram-negative bacteria ( Escherichia coli); Todd-Hewitt broth (Difco), 24 h for other streptococcal species; GC base broth (Difco)+1% Isovitalex (BBL), 48 h, CO2 -enriched atmosphere for Neisseria gonorrhoeae; Brain Heart broth (Difco)+1% Supplement C (Difco), 48 h for Haemophilus influenzae; Inocula were of about 10^4 -10^5 colony-forming units/ml for broth dilution MICs.

The test system of the next assay is Strep. pyogenes L49 C203. Briefly: MIC broth dilution test, Strep. pyogenes. Conditions: Todd-Hewitt broth, 24 h. Here is the method:
as §1
(Broth dilution looks for growth in wells or tubes with falling amounts of substance.)

The test system of assay [2] is Strip. pneumoniae L44 UC41. As to the kind of experiment: MIC broth dilution test, Strep. pneumoniae. Conditions: Todd-Hewitt broth, 24 h. Here is the method:
as §1

Assay [3] has as its system Staph. epidermidis L147 ATCC 12228 (coagulase negative). Briefly: MIC broth dilution test, Staph. epidermidis. Conditions: Isosensitest broth, 24 h. Here is the method:
as §1

For assay [4], the system named is Haemophilus influenzae L970 type b ATCC 19418. As to the kind of experiment: MIC broth dilution test, Haemophilus influenzae. The conditions noted are these: Brain Heart broth + 1% Supplement C, 48 h. Here is the method:
as §1

For assay [5], the system named is Strep. faecalis L149 ATCC 7080. Briefly: MIC broth dilution test, Strep. faecalis. Conditions: Isosensitest broth, 24 h. The method, then:
as §1

The test system of assay [6] is Staph. haemolyticus L602 (clinical isolate). Briefly: MIC broth dilution test, Staph. haemolyticus. The conditions noted are these: Isosensitest broth, 24 h. Here is the method: as §1
Assay [7] concerns Strep. mitis L796 (clinical isolate). Briefly: MIC broth dilution test, Strep. mitis. Conditions: Todd-Hewitt broth, 24 h. Here is the method:
as §1

Each structure is given as a SMILES string.

The record followed here is patent US5135857A, “Process for the preparation of de-mannosyl teicoplanin derivatives” (Gruppo Lepetit S.p.A., priority 1987, dated 1992).

For `CC(=O)N[C@H]1[C@H](OC2c3ccc(c(Cl)c3)Oc3cc4cc(c3O[C@@H]3O[C@H](CO)[C@@H](O)[C@H](O)[C@H]3NC(=O)CCCCCCC(C)C)Oc3ccc(cc3Cl)CC3NC(=O)C(N)c5ccc(O)c(c5)Oc5cc(O)cc(c5)C(NC3=O)C(=O)NC4C(=O)NC3C(=O)NC2C(=O)NC(C(=O)O)c2cc(O)cc(O)c2-c2cc3ccc2O)O[C@H](CO)[C@@H](O)[C@@H]1O` (stereo partly shown) [DM-TA2-2, de-mannosyl teicoplanin complex component 2], the M.I.C. in assay [1] is reported as 32 microgram/ml; in the assay with Strep. pyogenes L49 C203 it was 0.063 microgram/ml; in assay [2], 0.063 microgram/ml; in assay [3], 0.063 microgram/ml; in assay [4], 64 microgram/ml; in assay [5], 0.063 microgram/ml. In addition, the M.I.C. in assay [6] was determined as 0.5 microgram/ml; in assay [7], 0.063 microgram/ml.

`CCCCCCCCCC(=O)N[C@H]1[C@H](Oc2c3cc4cc2Oc2ccc(cc2Cl)C(O[C@@H]2O[C@H](CO)[C@@H](O)[C@H](O)[C@H]2NC(C)=O)C2NC(=O)C(NC(=O)C4NC(=O)C4NC(=O)C(Cc5ccc(c(Cl)c5)O3)NC(=O)C(N)c3ccc(O)c(c3)Oc3cc(O)cc4c3)c3ccc(O)c(c3)-c3c(O)cc(O)cc3C(C(=O)O)NC2=O)O[C@H](CO)[C@@H](O)[C@@H]1O` (stereo partly shown) [DM-TA2-3, de-mannosyl teicoplanin complex component 3]: the M.I.C. in assay [1] is 32 microgram/ml; in the assay on Strep. pyogenes L49 C203, 0.063 microgram/ml; in assay [2] it was 0.063 microgram/ml; in assay [3], 0.063 microgram/ml; in assay [4], 64 microgram/ml; in assay [5] it was 0.063 microgram/ml. The M.I.C. is given as 0.5 microgram/ml in assay [6] and 0.063 microgram/ml in assay [7].

For `CCC(C)CCCCCCC(=O)N[C@H]1[C@H](Oc2c3cc4cc2Oc2ccc(cc2Cl)C(O[C@@H]2O[C@H](CO)[C@@H](O)[C@H](O)[C@H]2NC(C)=O)C2NC(=O)C(NC(=O)C4NC(=O)C4NC(=O)C(Cc5ccc(c(Cl)c5)O3)NC(=O)C(N)c3ccc(O)c(c3)Oc3cc(O)cc4c3)c3ccc(O)c(c3)-c3c(O)cc(O)cc3C(C(=O)O)NC2=O)O[C@H](CO)[C@@H](O)[C@@H]1O` (stereo partly shown) [DM-TA2-4, de-mannosyl teicoplanin complex component 4], the M.I.C. in assay [1] was determined as 32 microgram/ml; with Strep. pyogenes L49 C203 it was 0.063 microgram/ml; in assay [2], 0.063 microgram/ml; in assay [3], 0.063 microgram/ml; in assay [4], 64 microgram/ml; in assay [5] it was 0.063 microgram/ml. In assay [6], the M.I.C. was found to be 0.5 microgram/ml.

As for `CC(=O)N[C@H]1[C@H](OC2c3ccc(c(Cl)c3)Oc3cc4cc(c3O[C@@H]3O[C@H](CO)[C@@H](O)[C@H](O)[C@H]3NC(=O)CCCCCCCC(C)C)Oc3ccc(cc3Cl)CC3NC(=O)C(N)c5ccc(O)c(c5)Oc5cc(O)cc(c5)C(NC3=O)C(=O)NC4C(=O)NC3C(=O)NC2C(=O)NC(C(=O)O)c2cc(O)cc(O)c2-c2cc3ccc2O)O[C@H](CO)[C@@H](O)[C@@H]1O` (stereo partly shown) [DM-TA2-5, de-mannosyl teicoplanin complex component 5], the M.I.C. in assay [1] worked out at 32 microgram/ml; in the assay on Strep. pyogenes L49 C203, 0.063 microgram/ml; in assay [2], 0.063 microgram/ml; in assay [3] it was 0.063 microgram/ml; in assay [4], 32 microgram/ml; in assay [5], 0.063 microgram/ml. For the same molecule, the figures for the M.I.C. in assay [6] and in assay [7] were 0.25 microgram/ml and 0.063 microgram/ml, respectively.
